The text below walks through data of PubChem BioAssay (NCI).

Some test systems named below: EKVX NSCLC; SF-295 CNS; ACHN renal; KM12 colon; NCI-H460 lung; HT29 colon; HL-60(TB) leukemia; HOP-62 NSCLC; SK-MEL-5 melanoma; MDA-MB-435.
Common to all, as to assay: inhibition of tumour cell growth, NCI panel, 48 h

Molecules are shown by their SMILES.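 96-well plates; 48 h exposure; 5 concentrations. Endpoints by linear interpolation between flanking doses. Not reached: highest tested concentration assigned. TGI is the concentration that stops growth completely.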 A value given as a limit tells only on which side of the number the result lay.

With `Cn1c2ccccc2c2ccc3c(c21)C(=O)c1ccc2c4ccccc4n(C)c2c1C3=O`, the TGI in the assay with EKVX NSCLC, in the assay on SF-295 CNS, with ACHN renal, in the assay with KM12 colon, in the assay with NCI-H460 lung and in the assay with HT29 colon was over 100 µM each time. Besides, the TGI in the assay on HL-60(TB) leukemia, in the assay with HOP-62 NSCLC, with SK-MEL-5 melanoma and with MDA-MB-435 was over 100 µM throughout.

Consider `CN(/N=C1\C(=O)Nc2ccccc21)c1ccccc1`, for which the TGI with EKVX NSCLC, in the assay with SF-295 CNS, in the assay with ACHN renal, with KM12 colon, in the assay on NCI-H460 lung and in the assay with HT29 colon was over 100 µM throughout. Besides, the TGI with HL-60(TB) leukemia, in the assay on HOP-62 NSCLC, with SK-MEL-5 melanoma and with MDA-MB-435 was over 100 µM throughout.

Consider `O=CC(I)=C(c1ccccc1)c1ccccc1`, for which the TGI was 36 µM in the assay with EKVX NSCLC; 31.6 µM in the assay on SF-295 CNS; 38.1 µM in the assay on ACHN renal; 28.7 µM in the assay on KM12 colon; 32.8 µM in the assay on NCI-H460 lung; 29.4 µM with HT29 colon. Also, the TGI in the assay with HL-60(TB) leukemia stood at 38.6 µM; in the assay on HOP-62 NSCLC, 32 µM; in the assay on SK-MEL-5 melanoma, 31.9 µM; with MDA-MB-435, 31.4 µM.

For the compound `Cc1ccc(-c2cc(-c3ccco3)c(C#N)c(=S)[nH]2)cc1`, the TGI in the assay on EKVX NSCLC, in the assay with SF-295 CNS, in the assay on ACHN renal, in the assay with KM12 colon, in the assay with NCI-H460 lung and in the assay with HT29 colon was over 100 µM each time. The TGI was over 100 µM with HL-60(TB) leukemia, over 100 µM in the assay on HOP-62 NSCLC, 61.9 µM in the assay on SK-MEL-5 melanoma and 65.1 µM with MDA-MB-435.

For the compound `CC1CC(N2CCOCC2)=Nc2ccccc2N1C` (stereo not given), the TGI in the assay with EKVX NSCLC, in the assay with SF-295 CNS, in the assay on ACHN renal, in the assay on KM12 colon, with NCI-H460 lung and in the assay with HT29 colon was over 100 µM throughout. For the same compound, the TGI with HL-60(TB) leukemia, with HOP-62 NSCLC, in the assay on SK-MEL-5 melanoma and in the assay with MDA-MB-435 was over 100 µM throughout.

For the compound `O=c1c(F)cn2c(=O)n1CCCCCCCn1c(=O)c(F)cn(c1=O)CCCCCCC2`, the TGI in the assay on EKVX NSCLC, with SF-295 CNS, in the assay with ACHN renal, in the assay with KM12 colon, in the assay on NCI-H460 lung and in the assay with HT29 colon was over 100 µM throughout. The TGI in the assay on HL-60(TB) leukemia, with HOP-62 NSCLC, in the assay with SK-MEL-5 melanoma and with MDA-MB-435 was over 100 µM throughout.

On to `CCOC1C=CC(=O)C(CO)O1` (stereo not given), for which the TGI is 33.3 µM in the assay on EKVX NSCLC; 33.2 µM in the assay on SF-295 CNS; 24.1 µM in the assay with ACHN renal; 31.5 µM in the assay with KM12 colon; 30.9 µM in the assay with NCI-H460 lung; 25.4 µM in the assay on HT29 colon. The TGI in the assay with HL-60(TB) leukemia was determined as 20.9 µM; with HOP-62 NSCLC, 28.4 µM; in the assay with SK-MEL-5 melanoma, 37.1 µM; in the assay with MDA-MB-435, 25.6 µM.

With `NCCN1CCCCCc2ccccc21`, the TGI in the assay with EKVX NSCLC, in the assay with SF-295 CNS, in the assay on ACHN renal, with KM12 colon, in the assay with NCI-H460 lung and with HT29 colon was over 10 µM each time. Also, the TGI in the assay on HL-60(TB) leukemia, in the assay on HOP-62 NSCLC, with SK-MEL-5 melanoma and in the assay with MDA-MB-435 was over 10 µM throughout.

For `CC(=O)O[C@@H](c1nccn1Cc1ccccc1)[C@H]1OC(C)(C)O[C@@H]1[C@H]1COC(C)(C)O1`, the TGI in the assay on EKVX NSCLC, in the assay on SF-295 CNS, in the assay with ACHN renal, in the assay with KM12 colon, with NCI-H460 lung and in the assay on HT29 colon was over 100 µM throughout. Further, the TGI in the assay with HL-60(TB) leukemia, with HOP-62 NSCLC, in the assay on SK-MEL-5 melanoma and with MDA-MB-435 was over 100 µM in each case.

Turning to `Cc1ccc2cccc(-c3cccc4ccccc34)c2n1`, the TGI was 84.9 µM in the assay on EKVX NSCLC; 69.8 µM with SF-295 CNS; over 100 µM in the assay on ACHN renal; 63.4 µM in the assay with KM12 colon; 89 µM in the assay with NCI-H460 lung; 76.9 µM with HT29 colon. In addition, the TGI amounted to 16.3 µM in the assay on HL-60(TB) leukemia, 56.9 µM in the assay on HOP-62 NSCLC, 32.2 µM in the assay on SK-MEL-5 melanoma and 7.58 µM with MDA-MB-435.

`CC(=O)Nc1nc(Cl)cc(NCC2(CO)CCC2)n1`: the TGI with EKVX NSCLC, with SF-295 CNS, in the assay on ACHN renal, in the assay on KM12 colon, with NCI-H460 lung and in the assay with HT29 colon was over 100 µM in each case. The TGI with HL-60(TB) leukemia, with HOP-62 NSCLC, in the assay on SK-MEL-5 melanoma and in the assay with MDA-MB-435 was over 100 µM each time.

Turning to `CC(C)C(Br)CCC1=CCC(Br)(Br)C1` (stereo not given), the TGI in the assay on EKVX NSCLC is 32.5 µM; with SF-295 CNS, 33.4 µM; with ACHN renal it was 30.6 µM; in the assay with KM12 colon, 27.5 µM; in the assay with NCI-H460 lung it was 31.7 µM; in the assay on HT29 colon it was 28.6 µM. Moreover, the TGI in the assay with HL-60(TB) leukemia was over 100 µM; with HOP-62 NSCLC, 30.8 µM; in the assay with SK-MEL-5 melanoma, 18.3 µM; in the assay on MDA-MB-435, 22.5 µM.

In the case of `Cc1c2cccc-2c2cc(O)c3ccccc3c2n1-c1ccc(N(C)C)cc1`, the TGI with EKVX NSCLC is 11.7 µM; in the assay with SF-295 CNS it was 22.5 µM; in the assay with ACHN renal it was 24.9 µM; with KM12 colon it was 23.1 µM; in the assay with NCI-H460 lung it was 59 µM; in the assay with HT29 colon, 31.4 µM. Also, the TGI in the assay with HL-60(TB) leukemia was over 100 µM; with HOP-62 NSCLC, 27.9 µM; with SK-MEL-5 melanoma, 24.1 µM; in the assay with MDA-MB-435 it was 27.8 µM.

`COC(=O)/C=C(/C=C1/C(C#N)=C(N)N(c2ccc(Cl)cc2)C1(C)/C(=C\C(=O)OC)C(=O)OC)C(=O)OC` (stereo not given): the TGI in the assay with EKVX NSCLC is over 100 µM; in the assay with SF-295 CNS, over 100 µM; in the assay with ACHN renal it was 76.8 µM; in the assay on KM12 colon, 37 µM; in the assay on NCI-H460 lung, 46.3 µM; with HT29 colon, 39 µM. Also, the TGI was over 100 µM with HL-60(TB) leukemia, over 100 µM in the assay on HOP-62 NSCLC, 29.4 µM in the assay on SK-MEL-5 melanoma and 41 µM with MDA-MB-435.
